Key:
Type in all cases: protein assay
Phosphodiesterase 4 [1] = molecular target: T1, Phosphodiesterase 4 (Homo sapiens, UniProt P27815+Q08499+Q07343+Q08493); assay: Inhibition of phosphodiesterase 4
Phosphodiesterase 4 [2] = molecular target: T1, Phosphodiesterase 4; assay: Relative inhibition of phosphodiesterase 4 activity and Rolipram binding to PDE4
Phosphodiesterase 4 [3] = molecular target: T1, Phosphodiesterase 4; assay: Inhibition of Rolipram binding to PDE4 at 10 uM
Phosphodiesterase 4 [4] = molecular target: T1, Phosphodiesterase 4; assay: Inhibition of Rolipram binding to PDE4
Phosphodiesterase 4 [5] = molecular target: T1, Phosphodiesterase 4; assay: (§1) Inhibition of Rolipram binding to PDE4 at 1 uM
Phosphodiesterase 4 [6] = molecular target: T1, Phosphodiesterase 4; assay: as §1; remark: listed apart in the source
Phosphodiesterase 4 [7] = molecular target: T1, Phosphodiesterase 4; assay: Inhibition of Rolipram binding to PDE4 at 100 uM

Row | SMILES | IC50 (Phosphodiesterase 4 [1]) | Ratio (Phosphodiesterase 4 [2]) | inhibition (Phosphodiesterase 4 [3]) | inhibition (Phosphodiesterase 4 [5]) | IC50 (Phosphodiesterase 4 [6]) | inhibition (Phosphodiesterase 4 [7]) | IC50 (Phosphodiesterase 4 [4])
1 | CCCn1cc(C(=O)NCCc2ccncc2)c(=O)c2cc(C(F)(F)F)ccc21.Cl | 1700 nM | 0.17 | – | – | – | – | 10000 nM
2 | CCn1cc(C(=O)NCCc2ccncc2)c(=O)c2cc3c(cc21)OCO3 | 23000 nM | 1 | 31% | – | – | – | –
3 | CCn1cc(C(=O)NCCc2ccncc2)c(=O)c2cnc(N3CCCC3)nc21 | 1200 nM | < 1 | – | 11% | – | – | –
4 | CCn1cc(C(=O)NC2CCc3cc(OC)c(OC)cc32)c(=O)c2cc(C(F)(F)F)ccc21 (configuration not stated) | 900 nM | < 0.9 | – | 22% | – | – | –
5 | CC1CCc2cc(F)cc3c(=O)c(C(=O)NCCc4ccncc4)cn1c23 (configuration not stated) | 7000 nM | < 0.7 | 8% | – | – | – | –
6 | CCn1cc(C(=O)NC2CCc3cc(NC(C)=O)ccc32)c(=O)c2cnc(N3CCCC3)nc21 (configuration not stated) | 1800 nM | < 1 | – | 17% | – | – | –

Now from value to compound, other results behind:

Row | IC50 (Phosphodiesterase 4 [1]) | Ratio (Phosphodiesterase 4 [2]) | inhibition (Phosphodiesterase 4 [3]) | inhibition (Phosphodiesterase 4 [5]) | IC50 (Phosphodiesterase 4 [6]) | inhibition (Phosphodiesterase 4 [7]) | SMILES | IC50 (Phosphodiesterase 4 [4])
7 | 1500 nM | < 0.15 | 24% | – | – | – | CCn1cc(C(=O)NCCc2ccncc2)c(=O)c2cc(C(F)(F)F)ccc21 | –
8 | 460 nM | < 0.46 | – | 15% | – | – | CCn1cc(C(=O)NCCc2ccncc2)c(=S)c2cc(C(F)(F)F)ccc21 | –
9 | 600 nM | < 0.6 | – | 8% | – | – | CCn1cc(C(=O)NCCc2ccccc2)c(=O)c2cc(C(F)(F)F)ccc21 | –
10 | 1100 nM | – | – | – | 10000 nM | – | CCn1cc(C(=O)N/N=C/c2ccccc2Cl)c(=O)c2cc(C(F)(F)F)ccc21 | –
11 | 49000 nM | < 0.49 | – | – | – | 15% | CCn1cc(C(=O)N(C)CCc2ccccc2)c(=O)c2cc(C(F)(F)F)ccc21 | –
